Data taken from PMC10046961, “High-Throughput Screening Assay for Detecting Drug-Induced Changes in Synchronized Neuronal Oscillations and Potential Seizure Risk Based on Ca^2+ Fluorescence Measurements in Human Induced Pluripotent Stem Cell (hiPSC)-Derived Neuronal 2D and 3D Cultures” (Cells, 2023).
Like-named read-outs stand apart in the source and are kept apart here.

Key:
[1] = test system: hiPSC-derived neurons co-cultured with human primary astrocytes in 2D; assay: Ca2+ transient oscillation assay (FDSS), 2D co-culture; type: cell-based; details: for activation at 0.11 µM / activation at 0.33 µM / activation at 1 µM / activation at 3 µM / activation at 3.7 µM / activation at 11.11 µM / activation at 33.33 µM / activation at 100 µM / activation at 0.37 µM / activation at 1.11 µM / activation at 3.33 µM / activation at 10 µM: Homo sapiens, 1 h, 60 min
Summary of the method: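 hiPSC-derived excitatory neurons (CW50065, Quick-Neuron EX-SeV) co-cultured with human primary astrocytes at 4:1 (10,000:2500 cells per well). Cal-520-loaded cells in HBSS with 2 mM CaCl2 and 10 mM HEPES were pretreated with 0.04% DMSO.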

[2] = test system: hiPSC-derived neurons co-cultured with human primary astrocytes in 3D; assay: Ca2+ transient oscillation assay (FDSS), 3D spheroids; type: cell-based; details: 60 min
Summary of the method: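 Fura-2 fluorescence was read twice for 20 min each: a baseline 10 min after 0.04% DMSO, and again 60 min after compound addition at nominal final concentration. The 3D co-cultures (1:1 hiPSC neurons from a donor and human astrocytes, 8000 each) matured 5 weeks in BrainPhys medium after a 1-week differentiation.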

[3] = ref PharmaPendium, cited from earlier work
[4] = read-out: Area under the curve - 2D Mean
[5] = read-out: Peak amplitude - 2D Mean
[6] = read-out: Peak-to-peak interval - 2D Mean
[7] = Table 1, peak plasma concentration in men, free therapeutic Cmax
[8] = Table 2, highest plasma concentration in humans after the therapeutic dose

For `NCCCC(=O)O` [GABA, gamma-aminobutyric acid], the “effect on peak number / Ca2+ neuronal oscillations, in words” value ([1]; 2D format) was “significantly reduced peak number”, the activation at 0.11 µM [1, 4] was 23.1% and the activation at 0.11 µM ([1]; read-out: Peak Number—2D Mean) was -1.6%. The activation at 0.11 µM [1, 5] was 9.1%, the activation at 0.11 µM ([1]; read-out: Peak width - 2D Mean) was 13.2% and the activation at 0.11 µM [1, 6] was -12.3%. The activation at 0.33 µM [1, 4] was 21.1%, the activation at 0.33 µM ([1]; read-out: Peak Number—2D Mean) was -4.4% and the activation at 0.33 µM [1, 5] was 5.7%. For the same molecule, the activation at 0.33 µM ([1]; read-out: Peak width - 2D Mean) was 15.4%, the activation at 0.33 µM [1, 6] was 29.1% and the activation at 1 µM [1, 4] was 16.4%. The activation at 1 µM ([1]; read-out: Peak Number—2D Mean) was -12.4%, the activation at 1 µM [1, 5] was -1.4% and the activation at 1 µM ([1]; read-out: Peak width - 2D Mean) was 11.7%. The activation at 1 µM [1, 6] was 32%, the activation at 3 µM [1, 4] was 14.9% and the activation at 3 µM ([1]; read-out: Peak Number—2D Mean) was -36.5%. The activation at 3 µM [1, 5] was -2.7%, the activation at 3 µM ([1]; read-out: Peak width - 2D Mean) was 8.5% and the activation at 3 µM [1, 6] was -26.3%. The “Area under the curve - 3D Mean” value ([2]; 0.11 µM) was 111.5 % change from baseline, the “Peak Number—3D Mean” value ([2]; 0.11 µM) was 5.0 % change from baseline and the “Peak amplitude - 3D Mean” value ([2]; 0.11 µM) was 87.8 % change from baseline. The “Peak width - 3D Mean” value ([2]; 0.11 µM) was 7.6 % change from baseline, the “Peak-to-peak interval - 3D Mean” value ([2]; 0.11 µM) was 0.2 % change from baseline and the “Area under the curve - 3D Mean” value ([2]; 0.33 µM) was 116.2 % change from baseline. The “Peak Number—3D Mean” value ([2]; 0.33 µM) was −1.8 % change from baseline, the “Peak amplitude - 3D Mean” value ([2]; 0.33 µM) was 112.0 % change from baseline and the “Peak width - 3D Mean” value ([2]; 0.33 µM) was 0.5 % change from baseline. For the same molecule, the “Peak-to-peak interval - 3D Mean” value ([2]; 0.33 µM) was −2.1 % change from baseline, the “Area under the curve - 3D Mean” value ([2]; 1 µM) was 97.0 % change from baseline and the “Peak Number—3D Mean” value ([2]; 1 µM) was −0.6 % change from baseline. For the same molecule, the “Peak amplitude - 3D Mean” value ([2]; 1 µM) was 90.5 % change from baseline, the “Peak width - 3D Mean” value ([2]; 1 µM) was −2.7 % change from baseline and the “Peak-to-peak interval - 3D Mean” value ([2]; 1 µM) was 8.3 % change from baseline. The “Area under the curve - 3D Mean” value ([2]; 3 µM) was 118.7 % change from baseline, the “Peak Number—3D Mean” value ([2]; 3 µM) was 2.2 % change from baseline and the “Peak amplitude - 3D Mean” value ([2]; 3 µM) was 110.9 % change from baseline. The “Peak width - 3D Mean” value ([2]; 3 µM) was 0.7 % change from baseline, the “Peak-to-peak interval - 3D Mean” value ([2]; 3 µM) was −2.5 % change from baseline and the “Free Cmax” value [3, 7] was roughly 1000 nM. The “Free Cmax” value [3, 8] was roughly 1000 nM.

Molecule `NC(=O)N1c2ccccc2C=Cc2ccccc21` [Carbamazepine] has an activation at 3.7 µM [1, 4] of 31.5%, an activation at 3.7 µM ([1]; read-out: Peak Number—2D Mean) of -15.3% and an activation at 3.7 µM [1, 5] of 16.5%. For the same molecule, the activation at 3.7 µM ([1]; read-out: Peak width - 2D Mean) was 19%, the activation at 3.7 µM [1, 6] was 0.8% and the activation at 11.11 µM [1, 4] was 62%. The activation at 11.11 µM ([1]; read-out: Peak Number—2D Mean) was -17%, the activation at 11.11 µM [1, 5] was 8.5% and the activation at 11.11 µM ([1]; read-out: Peak width - 2D Mean) was 66.5%. The activation at 11.11 µM [1, 6] was 45.8%, the activation at 33.33 µM [1, 4] was -39.7% and the activation at 33.33 µM ([1]; read-out: Peak Number—2D Mean) was -76.8%. It also gave an activation at 33.33 µM [1, 5] of -52%, an activation at 33.33 µM ([1]; read-out: Peak width - 2D Mean) of -36.7% and an activation at 33.33 µM [1, 6] of 45%. For the same molecule, the activation at 100 µM [1, 4] was -100%, the activation at 100 µM ([1]; read-out: Peak Number—2D Mean) was -100% and the activation at 100 µM [1, 5] was -100%. The activation at 100 µM ([1]; read-out: Peak width - 2D Mean) was -100%, the activation at 100 µM [1, 6] was -100% and the “Area under the curve - 3D Mean” value ([2]; 3.7 µM) was 122.1 % change from baseline. For the same molecule, the “Peak Number—3D Mean” value ([2]; 3.7 µM) was 11.4 % change from baseline, the “Peak amplitude - 3D Mean” value ([2]; 3.7 µM) was 114.1 % change from baseline and the “Peak width - 3D Mean” value ([2]; 3.7 µM) was 2.9 % change from baseline. The “Peak-to-peak interval - 3D Mean” value ([2]; 3.7 µM) was −4.9 % change from baseline, the “Area under the curve - 3D Mean” value ([2]; 11.11 µM) was 121.7 % change from baseline and the “Peak Number—3D Mean” value ([2]; 11.11 µM) was 3.9 % change from baseline. The “Peak amplitude - 3D Mean” value ([2]; 11.11 µM) was 114.1 % change from baseline, the “Peak width - 3D Mean” value ([2]; 11.11 µM) was 2.8 % change from baseline and the “Peak-to-peak interval - 3D Mean” value ([2]; 11.11 µM) was 9.5 % change from baseline. For the same molecule, the “Area under the curve - 3D Mean” value ([2]; 33.33 µM) was 107.4 % change from baseline, the “Peak Number—3D Mean” value ([2]; 33.33 µM) was −19.3 % change from baseline and the “Peak amplitude - 3D Mean” value ([2]; 33.33 µM) was 93.5 % change from baseline. For the same molecule, the “Peak width - 3D Mean” value ([2]; 33.33 µM) was 5.1 % change from baseline, the “Peak-to-peak interval - 3D Mean” value ([2]; 33.33 µM) was 33.5 % change from baseline and the “Area under the curve - 3D Mean” value ([2]; 100 µM) was 173.0 % change from baseline. For the same molecule, the “Peak Number—3D Mean” value ([2]; 100 µM) was −21.5 % change from baseline, the “Peak amplitude - 3D Mean” value ([2]; 100 µM) was 85.2 % change from baseline and the “Peak width - 3D Mean” value ([2]; 100 µM) was 43.8 % change from baseline. For the same molecule, the “Peak-to-peak interval - 3D Mean” value ([2]; 100 µM) was 25.1 % change from baseline, the “Free Cmax” value [3, 7] was 10000 nM and the “Free Cmax” value [3, 8] was 10000 nM.

Molecule `CCn1cc(C(=O)O)c(=O)c2cc(F)c(N3CCNCC3)nc21` [Enoxacin] has an activation at 0.37 µM [1, 4] of 25.5%, an activation at 0.37 µM ([1]; read-out: Peak Number—2D Mean) of 1.3% and an activation at 0.37 µM [1, 5] of 7.8%. It also gave an activation at 0.37 µM ([1]; read-out: Peak width - 2D Mean) of 18.3%, an activation at 0.37 µM [1, 6] of 18% and an activation at 1.11 µM [1, 4] of 41%. The activation at 1.11 µM ([1]; read-out: Peak Number—2D Mean) was 2.3%, the activation at 1.11 µM [1, 5] was 5.3% and the activation at 1.11 µM ([1]; read-out: Peak width - 2D Mean) was 45.8%. For the same molecule, the activation at 1.11 µM [1, 6] was 1.3%, the activation at 3.33 µM [1, 4] was 47.3% and the activation at 3.33 µM ([1]; read-out: Peak Number—2D Mean) was 5.5%. For the same molecule, the activation at 3.33 µM [1, 5] was 13.5%, the activation at 3.33 µM ([1]; read-out: Peak width - 2D Mean) was 39% and the activation at 3.33 µM [1, 6] was 12.7%. The activation at 10 µM [1, 4] was 49.3%, the activation at 10 µM ([1]; read-out: Peak Number—2D Mean) was 2% and the activation at 10 µM [1, 5] was 11.3%. The activation at 10 µM ([1]; read-out: Peak width - 2D Mean) was 49%, the activation at 10 µM [1, 6] was -3% and the “Area under the curve - 3D Mean” value ([2]; 0.37 µM) was 115.6 % change from baseline. The “Peak Number—3D Mean” value ([2]; 0.37 µM) was −16.9 % change from baseline, the “Peak amplitude - 3D Mean” value ([2]; 0.37 µM) was 106.8 % change from baseline and the “Peak width - 3D Mean” value ([2]; 0.37 µM) was 3.2 % change from baseline. The “Peak-to-peak interval - 3D Mean” value ([2]; 0.37 µM) was 30.9 % change from baseline, the “Area under the curve - 3D Mean” value ([2]; 1.11 µM) was 124.6 % change from baseline and the “Peak Number—3D Mean” value ([2]; 1.11 µM) was 5.5 % change from baseline. For the same molecule, the “Peak amplitude - 3D Mean” value ([2]; 1.11 µM) was 123.3 % change from baseline, the “Peak width - 3D Mean” value ([2]; 1.11 µM) was −2.2 % change from baseline and the “Peak-to-peak interval - 3D Mean” value ([2]; 1.11 µM) was −0.7 % change from baseline. For the same molecule, the “Area under the curve - 3D Mean” value ([2]; 3.33 µM) was 139.4 % change from baseline, the “Peak Number—3D Mean” value ([2]; 3.33 µM) was 13.2 % change from baseline and the “Peak amplitude - 3D Mean” value ([2]; 3.33 µM) was 129.6 % change from baseline. The “Peak width - 3D Mean” value ([2]; 3.33 µM) was 3.0 % change from baseline, the “Peak-to-peak interval - 3D Mean” value ([2]; 3.33 µM) was −1.3 % change from baseline and the “Area under the curve - 3D Mean” value ([2]; 10 µM) was 114.6 % change from baseline. The “Peak Number—3D Mean” value ([2]; 10 µM) was 2.2 % change from baseline, the “Peak amplitude - 3D Mean” value ([2]; 10 µM) was 116.3 % change from baseline and the “Peak width - 3D Mean” value ([2]; 10 µM) was −1.1 % change from baseline. For the same molecule, the “Peak-to-peak interval - 3D Mean” value ([2]; 10 µM) was −1.1 % change from baseline and the “Free Cmax” value [3, 7] was 1000 to 4000 nM.
